Experiments:
[1] = tested on: uric acid-xanthine/H+ symporter (UapA), UapAG411VΔ1-11 GFP fusion; experiment: Thermal stability of UapA solubilized by detergent, fluorescence size exclusion chromatography (FSEC); design: species or system Aspergillus nidulans; conditions: detergent 1.0% by weight; 40° C. for 10 minutes
Procedure: A UapA protein is a uric acid-xanthine/H^+ symporter in Aspergillus nidulans. An experiment for measuring structural stability of a uric acid-xanthine/H^+ symporter (UapA) by BTMs in an aqueous solution was performed. The structural stability of UapA was measured using fluorescence size exclusion chromatography (FSEC).
Specifically, UapAG411VΔ1-11 (hereinafter referred to as ‘UapA’) was expressed as a GFP fusion protein in a Saccharomyces cerevisiae FGY217 strain, and divided into a sample buffer (20 mM Tris (pH 7.5), 150 mM NaCl, 0.03% DDM, and 0.6 mM xanthine). This procedure was performed according to the method disclosed in the article by J. Leung et al. (Mol. Membr. Biol. 2013, 30, 32-42). Membranes containing UapA were re-suspended in PBS (10 mM imidazole pH 8.0, 150 mM NaCl, and 10% glycerol), and a concentration of proteins was measured. […] 100 μL aliquots were removed from the respective tubes, and fluorescence reading on each sample was performed before and after the aliquots were ultracentrifuged at 150,000 g for 10 minutes to remove insoluble matter. Water-soluble fractions remaining under each condition were subjected to fluorescence SEC (FSEC) using a Superose 6 column (GE Healthcare) equilibrated with a buffer containing a proper preparation (DDM or BTM).

[2] = Critical micelle concentration (CMC) using diphenylhexatriene (DPH) fluorescent stain; type: physicochemical; conditions: aqueous solution
Procedure: A method of measuring the CMC is not particularly limited, but the CMC may be measured using methods well known in the related art. For example, the CMC may be measured by a fluorescence staining method using diphenylhexatriene (DPH).
Specifically, the critical micelle concentration (CMC) was measured using diphenylhexatriene (DPH) as a fluorescent stain, and the hydrodynamic radii (Rh) of the micelles formed by each preparation (1.0% by weight) were measured through a dynamic light scattering (DLS) experiment.

[3] = tested on: leucine transporter (LeuT); experiment: Structural stability of LeuT, [3H]-Leu binding by scintillation proximity assay (SPA); type: biochemical, Aquifex aeolicus; conditions: CMC+0.04% or CMC+0.2% by weight; room temperature; 12 days incubation
Procedure: An experiment for measuring structural stability of a LeuT protein by BTMs in an aqueous solution was performed. Each amphiphilic compound was used at a concentration of (a) CMC+0.04% by weight or (b) CMC+0.2% by weight, and the ligand-binding characteristics of LeuT were determined through a scintillation proximity assay (SPA) using [^3H]-Leu. The measurement was performed at room temperature at regular intervals during an incubation period of 12 days.
Specifically, thermophilic bacteria (Aquifex aeolicus)-derived wild-type leucine transporter (LeuT) were purified using the method as described above (G. Deckert, et al., Nature 1998, 392, 353-358). LeuT was expressed in E. coli C41 (DE3) transformed with pET16b encoding a C-terminal 8×His-tagged transporter (an expression plasmid was provided from Dr. E. Gouaux, Vollum Institute, Portland, Oreg., USA). […] Protein samples were stored at room temperature for 12 days, and centrifuged for a given time, and the characteristics of the proteins were determined by measuring a [^3H]-leucine binding ability using SPA. […] The entire [^3H]-leucine binding affinity to each sample was measured using a MicroBeta liquid scintillation counter (PerkinElmer).

[4] = target: T1, human β2 adrenergic receptor (β2AR) (Homo sapiens, UniProt P07550); experiment: Structural stability of β2AR, [3H]-dihydroalprenolol ([3H]-DHA) binding; type: biochemical; conditions: BTMs without CHS, DDM with CHS
T1 construct: made in house
Procedure: An experiment for determining the structural stability of a human β2 adrenergic receptor (β2AR) and a G-protein-coupled receptor (GPCR) by BTMs was performed. That is, a receptor purified with DDM was diluted with a buffer solution containing only each of the BTMs without cholesteryl hemisuccinate (CHS) or a buffer solution containing DDM with CHS. The final compound concentration was CMC+0.2% by weight, and the ligand-binding characteristics of the receptor were determined through [^3H]-dihydroalprenolol ([^3H]-DHA) binding.
Specifically, a radioactive ligand binding test was performed using the following method. β2AR was purified with 0.1% DDM (D. M. Rosenbaum et al., Science, 2007, 318, 1266-1273.), and finally concentrated to approximately 10 mg/mL (approximately 200 μM). A master binding mixture containing 10 nM [^3H]-dihydroalprenolol (DHA) supplemented with 0.5 mg/mL BSA in each 0.2% amphiphilic compound (DDM or BTMs) was prepared using the β2AR purified with DDM. The ligand-binding characteristics of the receptor purified with the amphiphilic compound at 0.2 pmol was monitored at regular intervals while the receptor was incubated at room temperature for 3 days. The ligand-binding characteristics of the receptor were determined using a water-soluble radioactive ligand binding assay as will be described below. The receptor purified with DDM or each of the BTMs was incubated with 10 nM [^3H]-DHA at room temperature for 30 minutes. The mixture was loaded on a G-50 column, and flow-through fractions were collected using 1 mL of a binding buffer (20 mM HEPES (pH 7.5) supplemented with 0.5 mg/mL BSA and 20×CMC of each amphiphilic compound, 100 mM NaCl). Then, the G-50 column was filled with 15 mL of a scintillation fluid. Receptor-bound [^3H]-DHA was counted using a scintillation counter (Beckman). Non-specific binding of [^3H]-DHA was determined by adding 2 μM of alprenolol (Sigma) in the same binding reaction. The binding affinity of [^3H]-DHA was plotted on a column graph, and each experiment was performed in triplicate.

T1 sequence (P07550 whole entry): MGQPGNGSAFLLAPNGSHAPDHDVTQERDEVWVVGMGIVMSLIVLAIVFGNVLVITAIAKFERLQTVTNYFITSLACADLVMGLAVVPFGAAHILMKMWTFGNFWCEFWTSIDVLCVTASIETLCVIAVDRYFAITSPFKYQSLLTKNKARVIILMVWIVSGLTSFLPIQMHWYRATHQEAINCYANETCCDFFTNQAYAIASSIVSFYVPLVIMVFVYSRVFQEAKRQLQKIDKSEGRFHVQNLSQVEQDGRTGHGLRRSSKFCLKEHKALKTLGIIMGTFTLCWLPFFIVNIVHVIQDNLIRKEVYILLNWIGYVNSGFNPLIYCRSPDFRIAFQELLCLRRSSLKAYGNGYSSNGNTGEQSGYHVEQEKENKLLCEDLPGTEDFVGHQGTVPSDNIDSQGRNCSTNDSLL

SMILES: CCCCCCCCCCCCO[C@@H]1O[C@H](CO)[C@@H](O[C@H]2O[C@H](CO)[C@@H](O)[C@H](O)[C@H]2O)[C@H](O)[C@H]1O [DDM, n-dodecyl-β-D-maltopyranoside, reference compound]
- UapA monodisperse peak in FSEC (extraction and structural stability) [1]: monodisperse peak with a relatively high strength
- CMC [2]: ~0.17 mM
- CMC (% by weight) [2]: ~0.0087 % by weight
- maintenance of ligand-binding characteristics of LeuT [3]: continuous structural collapse of the solubilized transporter
- initial ligand-binding characteristics of β2AR ([3H]-DHA) ([4]; CMC+0.2% by weight): high ability to bind to a ligand
- remaining ligand-binding ability of β2AR, % of initial ([4]; after 3 days of incubation at room temperature): 10%

Source: patent US11198704B2, “Butane-tetraol-based amphiphiles and uses thereof” (Industry-University Cooperation Foundation Hanyang …, priority 2016, dated 2021)
